# Results published in US20240083845A1 (priority 2020, published 2024).
# Biological target: SARS-CoV-2 Mpro (Severe acute respiratory syndrome coronavirus 2, UniProt P0DTD1)
# Experiment: SARS-CoV-2 Mpro enzyme assay (FRET)
# Type: biochemical
# Details: FRET substrate Dabcyl-KTSAVLQSGFRKM-E(Edans)-Amide, 20 nM enzyme, 30 min preincubation at 30° C., mean n=2; read-out: SARS-CoV-2 Mpro enzyme assay pKi (converted)
row,SMILES,Ki
1,"CC[C@@H](CC(=O)N[C@@H](CC(C)(C)C)C(=O)NC(C[C@@H]1CCNC1=O)C(=O)C(=O)NC1CC1)c1ccccc1 (single isomer, unassigned) [Example 14]",0.00794 µM
2,"CC[C@H](CC(=O)N[C@@H](CC(C)(C)C)C(=O)NC(C[C@@H]1CCNC1=O)C(=O)C(=O)NC1CC1)c1ccccc1 (single isomer, unassigned) [Example 15]",0.01 µM
3,"CC(C)(C)C[C@H](NC(=O)C[C@@H](c1ccccc1)C(F)(F)F)C(=O)NC(C[C@@H]1CCNC1=O)C(=O)C(=O)NC1CC1 (single isomer, unassigned) [Example 16]",0.02 µM
4,"CC(C)(C)C[C@H](NC(=O)C[C@H](c1ccccc1)C(F)(F)F)C(=O)NC(C[C@@H]1CCNC1=O)C(=O)C(=O)NC1CC1 (single isomer, unassigned) [Example 17]",0.0126 µM
5,"NC(=O)C(=O)C(C[C@@H]1CCNC1=O)NC(=O)[C@H](CC1CC1)NC(=O)/C=C/c1ccc(Cl)cc1F (stereo partly drawn) [Example 1, 3-((S)-2-((E)-3-(4-chloro-2-fluorophenyl)acrylamido)-3-cyclopropylpropanamido)-2-oxo-4-((S)-2-oxopyrrolidin-3-yl)butanamide]",0.0126 µM
6,"NC(=O)C(=O)C(C[C@@H]1CCNC1=O)NC(=O)[C@H](CC1CC1)NC(=O)/C=C/c1ccccc1 (stereo partly drawn) [Example 2, 3-((S)-2-cinnamamido-3-cyclopropylpropanamido)-2-oxo-4-((S)-2-oxopyrrolidin-3-yl)butanamide]",0.02 µM
7,"NC(=O)C(=O)C(C[C@@H]1CCNC1=O)NC(=O)[C@H](CC1CC1)NC(=O)OCc1ccccc1 (stereo partly drawn) [Example 3, benzyl ((2S)-1-((4-amino-3,4-dioxo-1-((S)-2-oxopyrrolidin-3-yl)butan-2-yl)amino)-3-cyclopropyl-1-oxopropan-2-yl)carbamate]",0.0251 µM
8,"NC(=O)C(=NO)C(C[C@@H]1CCNC1=O)NC(=O)[C@H](CC1CC1)NC(=O)/C=C/c1ccc(Cl)cc1F (stereo partly drawn) [Example 4, 3-((S)-2-((E)-3-(4-chloro-2-fluorophenyl)acrylamido)-3-cyclopropylpropanamido)-2-(hydroxyimino)-4-((S)-2-oxopyrrolidin-3-yl)butanamide]",1 µM
9,"CC(C)(C)NC(=O)C(=O)C(C[C@@H]1CCNC1=O)NC(=O)[C@H](CC1CC1)NC(=O)/C=C/c1ccc(Cl)cc1F (stereo partly drawn) [Example 5, N-(tert-butyl)-3-((S)-2-((E)-3-(4-chloro-2-fluorophenyl)acrylamido)-3-cyclopropylpropanamido)-2-oxo-4-((S)-2-oxopyrrolidin-3-yl)butanamide]",0.501 µM
10,"NC(=O)C(=O)C(CC1CC1)NC(=O)[C@H](CC1CC1)NC(=O)/C=C/c1ccc(Cl)cc1F (stereo partly drawn) [Example 6, 3-((S)-2-((E)-3-(4-chloro-2-fluorophenyl)acrylamido)-3-cyclopropylpropanamido)-4-cyclopropyl-2-oxobutanamide]",5.01 µM
11,"NC(=O)C(=O)C(CC1CCCC1)NC(=O)[C@H](CC1CC1)NC(=O)/C=C/c1ccc(Cl)cc1F (stereo partly drawn) [Example 7, 3-((S)-2-((E)-3-(4-chloro-2-fluorophenyl)acrylamido)-3-cyclopropylpropanamido)-4-cyclopentyl-2-oxobutanamide]",7.94 µM
12,"NC(=O)C(=O)C(C[C@@H]1CCNC1=O)NC(=O)[C@H](CC1CC1)NC(=O)CCc1ccccc1 (stereo partly drawn) [Example 8, 3-((S)-3-cyclopropyl-2-(3-phenylpropanamido)propanamido)-2-oxo-4-((S)-2-oxopyrrolidin-3-yl)butanamide]",0.0501 µM
13,"CC(C)(C)C[C@H](NC(=O)/C=C/c1ccc(Cl)cc1Cl)C(=O)NC(C#N)C[C@@H]1CCNC1=O (stereo partly drawn) [Example 9, (2S)-N-(1-Cyano-2-((S)-2-oxopyrrolidin-3-yl)ethyl)-2-((E)-3-(2,4-dichlorophenyl)acrylamido)-4,4-dimethylpentanamide]",0.398 µM
14,"CC(C)(C)C[C@H](NC(=O)/C=C/c1ccc(Cl)cc1Cl)C(=O)NC(C[C@@H]1CCNC1=O)C(=O)C(=O)NC1CC1 (stereo partly drawn) [Example 10, (2S)-N-(4-(Cyclopropylamino)-3,4-dioxo-1-((S)-2-oxopyrrolidin-3-yl)butan-2-yl)-2-((E)-3-(2,4-dichlorophenyl)acrylamido)-4,4-dimethylpentanamide]",0.00631 µM
15,"CC(C)(C)C[C@H](NC(=O)/C=C/c1ccc(Cl)cc1F)C(=O)NC(C[C@@H]1CCNC1=O)C(=O)C(=O)NC1CC1 (stereo partly drawn) [Example 11, (2S)-2-((E)-3-(4-chloro-2-fluorophenyl)acrylamido)-N-(4-(cyclopropylamino)-3,4-dioxo-1-((S)-2-oxopyrrolidin-3-yl)butan-2-yl)-4,4-dimethylpentanamide]",100000 µM
16,"C[C@@H](CC(=O)N[C@@H](CC(C)(C)C)C(=O)NC(C[C@@H]1CCNC1=O)C(=O)C(=O)NC1CC1)c1ccccc1 (stereo partly drawn) [Example 12, (2S)-N-(4-(cyclopropylamino)-3,4-dioxo-1-((S)-2-oxopyrrolidin-3-yl)butan-2-yl)-4,4-dimethyl-2-((S)-3-phenylbutanamido)pentanamide]",0.0158 µM
17,"C[C@H](CC(=O)N[C@@H](CC(C)(C)C)C(=O)NC(C[C@@H]1CCNC1=O)C(=O)C(=O)NC1CC1)c1ccccc1 (stereo partly drawn) [Example 13, (2S)-N-(4-(cyclopropylamino)-3,4-dioxo-1-((S)-2-oxopyrrolidin-3-yl)butan-2-yl)-4,4-dimethyl-2-((R)-3-phenylbutanamido)pentanamide]",0.0158 µM
18,"CC(C)C[C@H](NC(=O)/C=C/c1ccc(Cl)cc1F)C(=O)NC(C[C@@H]1CCNC1=O)C(=O)C(N)=O (stereo partly drawn) [Example 18, (2S)-N-(4-amino-3,4-dioxo-1-((S)-2-oxopyrrolidin-3-yl)butan-2-yl)-2-((E)-3-(4-chloro-2-fluorophenyl)acrylamido)-4-methylpentanamide]",0.0126 µM
19,"CCNC(=O)C(=O)C(C[C@@H]1CCNC1=O)NC(=O)[C@H](CC1CC1)NC(=O)/C=C/c1ccc(Cl)cc1F (stereo partly drawn) [Example 19, 3-((S)-2-((E)-3-(4-chloro-2-fluorophenyl)acrylamido)-3-cyclopropylpropanamido)-N-ethyl-2-oxo-4-((S)-2-oxopyrrolidin-3-yl)butanamide]",0.0126 µM
20,"NC(=O)C(=O)C(C[C@@H]1CCNC1=O)NC(=O)[C@H](CC1CC1)NC(=O)/C=C/c1ccc(Cl)cc1Cl (stereo partly drawn) [Example 20, 3-((S)-3-cyclopropyl-2-((E)-3-(2,4-dichlorophenyl)acrylamido)propanamido)-2-oxo-4-((S)-2-oxopyrrolidin-3-yl)butanamide]",0.1 µM
21,"O=C(/C=C/c1ccc(Cl)cc1F)N[C@@H](CC1CC1)C(=O)NC(C[C@@H]1CCNC1=O)C(=O)C(=O)NC1CC1 (stereo partly drawn) [Example 21, 3-((S)-2-((E)-3-(4-chloro-2-fluorophenyl)acrylamido)-3-cyclopropylpropanamido)-N-cyclopropyl-2-oxo-4-((S)-2-oxopyrrolidin-3-yl)butanamide]",0.00794 µM
22,"CC(C)(C)C[C@H](NC(=O)/C=C/c1ccc(Cl)cc1F)C(=O)NC(C[C@@H]1CCNC1=O)C(=O)C(N)=O (stereo partly drawn) [Example 22, (2S)-N-(4-amino-3,4-dioxo-1-((S)-2-oxopyrrolidin-3-yl)butan-2-yl)-2-((E)-3-(4-chloro-2-fluorophenyl)acrylamido)-4,4-dimethylpentanamide]",0.00631 µM
23,"CCNC(=O)C(=O)C(C[C@@H]1CCNC1=O)NC(=O)[C@H](CC(C)(C)C)NC(=O)/C=C/c1ccc(Cl)cc1F (stereo partly drawn) [Example 23, (2S)-2-((E)-3-(4-chloro-2-fluorophenyl)acrylamido)-N-(4-(ethylamino)-3,4-dioxo-1-((S)-2-oxopyrrolidin-3-yl)butan-2-yl)-4,4-dimethylpentanamide]",0.0126 µM
24,"CCNC(=O)C(=O)C(C[C@@H]1CCNC1=O)NC(=O)[C@H](CC1CC1)NC(=O)/C=C/c1ccc(Cl)cc1Cl (stereo partly drawn) [Example 24, 3-((S)-3-cyclopropyl-2-((E)-3-(2,4-dichlorophenyl)acrylamido)propanamido)-N-ethyl-2-oxo-4-((S)-2-oxopyrrolidin-3-yl)butanamide]",0.0126 µM
25,"O=C(/C=C/c1ccc(Cl)cc1Cl)N[C@@H](CC1CC1)C(=O)NC(C[C@@H]1CCNC1=O)C(=O)C(=O)NC1CC1 (stereo partly drawn) [Example 25, N-cyclopropyl-3-((S)-3-cyclopropyl-2-((E)-3-(2,4-dichlorophenyl)acrylamido)propanamido)-2-oxo-4-((S)-2-oxopyrrolidin-3-yl)butanamide]",0.01 µM
26,"CCNC(=O)C(=O)C(C[C@@H]1CCNC1=O)NC(=O)[C@H](CC(C)(C)C)NC(=O)/C=C/c1ccc(Cl)cc1Cl (stereo partly drawn) [Example 26, (2S)-2-((E)-3-(2,4-dichlorophenyl)acrylamido)-N-(4-(ethylamino)-3,4-dioxo-1-((S)-2-oxopyrrolidin-3-yl)butan-2-yl)-4,4-dimethylpentanamide]",0.01 µM
27,"CC(C)(C)C[C@H](NC(=O)/C=C/c1ccc(Cl)cc1Cl)C(=O)NC(C[C@@H]1CCNC1=O)C(=O)C(N)=O (stereo partly drawn) [Example 27, (2S)-N-(4-amino-3,4-dioxo-1-((S)-2-oxopyrrolidin-3-yl)butan-2-yl)-2-((E)-3-(2,4-dichlorophenyl)acrylamido)-4,4-dimethylpentanamide]",0.00794 µM
28,"O=C(/C=C/c1ccc(Cl)cc1F)N[C@@H](CC1CC1)C(=O)NC(C[C@@H]1CCNC1=O)C(=O)C(=O)NC1CC1 (stereo partly drawn) [Example 28, 3-((S)-2-((E)-3-(4-chloro-2-fluorophenyl)acrylamido)-3-cyclopropylpropanamido)-N-cyclopropyl-2-oxo-4-((S)-2-oxopyrrolidin-3-yl)butanamide]",0.0158 µM
29,"O=C(N[C@@H](CC1CC1)C(=O)NC(C[C@@H]1CCNC1=O)C(=O)C(=O)NC1CC1)OCc1ccccc1 (stereo partly drawn) [Example 29, benzyl ((2S)-3-cyclopropyl-1-((4-(cyclopropylamino)-3,4-dioxo-1-((S)-2-oxopyrrolidin-3-yl)butan-2-yl)amino)-1-oxopropan-2-yl)carbamate]",0.0158 µM
30,"O=C(CCc1ccc(Cl)cc1Cl)N[C@@H](CC1CC1)C(=O)NC(C[C@@H]1CCNC1=O)C(=O)C(=O)NC1CC1 (stereo partly drawn) [Example 30, N-cyclopropyl-3-((S)-3-cyclopropyl-2-(3-(2,4-dichlorophenyl)propanamido)propanamido)-2-oxo-4-((S)-2-oxopyrrolidin-3-yl)butanamide]",0.02 µM
